Measured values reported in patent US8153795B2, “Substituted 1-oxa-3,8-diazaspiro[4.5]-decan-2-one-compounds and the use thereof for producing drugs” (Gruenenthal GmbH, priority 2005, dated 2012).

What was measured:
5-HT transporter = target: T1, 5-HT transporter (Rattus norvegicus, UniProt P31652); assay: 5-HT uptake inhibition in rat brain synaptosomes (medulla and pons), [3H]-5-HT; type: biochemical
T1 construct: from tissue; host or cells: rat brain synaptosomes (P2 fraction) from medulla and pons
T1 sequence (P31652 whole entry): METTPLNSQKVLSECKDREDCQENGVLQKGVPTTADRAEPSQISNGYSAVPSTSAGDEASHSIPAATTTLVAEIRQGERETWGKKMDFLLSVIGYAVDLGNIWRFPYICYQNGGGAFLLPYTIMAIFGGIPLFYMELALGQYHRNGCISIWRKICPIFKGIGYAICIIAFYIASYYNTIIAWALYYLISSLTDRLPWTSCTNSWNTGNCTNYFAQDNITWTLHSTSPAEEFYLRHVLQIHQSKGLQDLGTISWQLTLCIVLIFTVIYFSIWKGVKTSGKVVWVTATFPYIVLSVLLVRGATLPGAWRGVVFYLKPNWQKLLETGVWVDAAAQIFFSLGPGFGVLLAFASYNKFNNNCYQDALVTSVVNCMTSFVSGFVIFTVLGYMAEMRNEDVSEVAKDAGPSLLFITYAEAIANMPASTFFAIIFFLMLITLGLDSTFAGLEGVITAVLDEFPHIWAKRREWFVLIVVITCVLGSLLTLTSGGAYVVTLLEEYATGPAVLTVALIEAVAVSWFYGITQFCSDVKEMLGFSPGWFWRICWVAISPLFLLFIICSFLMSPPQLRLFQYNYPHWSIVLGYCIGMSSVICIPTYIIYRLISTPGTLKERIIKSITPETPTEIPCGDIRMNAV
Procedure, shortened: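 Freshly isolated P2 synaptosomes taken from rat hypothalamus (NA) or medulla/pons (5-HT) were incubated at room temperature under O2 with [3H]-NA for 7.5 min or [3H]-5-HT for 5 min. Uptake was measured as filter-retained radioactivity by scintillation counting.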

NA transporter = target: T2, NA transporter (Rattus norvegicus, UniProt Q63380); assay: noradrenalin uptake inhibition in rat brain synaptosomes (hypothalamus), [3H]-NA; type: biochemical
T2 construct: from tissue; host or cells: rat brain synaptosomes (P2 fraction) from hypothalamus
T2 sequence (Q63380 1-617): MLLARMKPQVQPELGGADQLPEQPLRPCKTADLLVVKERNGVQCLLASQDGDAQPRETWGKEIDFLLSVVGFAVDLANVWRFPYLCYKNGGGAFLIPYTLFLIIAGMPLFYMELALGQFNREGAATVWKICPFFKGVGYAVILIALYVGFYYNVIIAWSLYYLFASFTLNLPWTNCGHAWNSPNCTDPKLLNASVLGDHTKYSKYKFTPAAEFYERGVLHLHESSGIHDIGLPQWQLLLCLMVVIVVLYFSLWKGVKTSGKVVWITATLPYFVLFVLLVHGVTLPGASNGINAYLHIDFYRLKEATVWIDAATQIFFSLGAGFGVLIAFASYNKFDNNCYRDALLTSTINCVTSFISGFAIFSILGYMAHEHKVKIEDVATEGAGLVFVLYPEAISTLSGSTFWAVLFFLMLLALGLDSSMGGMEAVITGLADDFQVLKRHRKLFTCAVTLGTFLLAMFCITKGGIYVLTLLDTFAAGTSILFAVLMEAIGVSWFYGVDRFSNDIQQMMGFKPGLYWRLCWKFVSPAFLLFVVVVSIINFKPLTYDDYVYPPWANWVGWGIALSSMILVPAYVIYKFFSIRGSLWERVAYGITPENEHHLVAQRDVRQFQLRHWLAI
Text: a) Method for Determining Noradrenalin and 5-HT Uptake Inhibition:
Synaptosomes from rat brain regions are freshly isolated for in vitro studies, as described in the publication “The isolation of nerve endings from brain” by E. G. Gray and V. P. Whittaker, J. Anatomy 96, pages 79-88, 1962. The corresponding literature description is hereby introduced as a reference and is deemed to be part of the disclosure.
The tissue (hypothalamus for the determination of noradrenalin uptake inhibition and medulla and pons for the determination of 5-HT uptake inhibition) is homogenised in ice-cooled 0.32 M sucrose (100 mg of tissue/1 mL) in a glass homogeniser with Teflon pestle using five complete up and down strokes at 840 revolutions/minute.
The homogenate is centrifuged at 4° C. for 10 minutes at 1000 g. After subsequent centrifugation at 17000 g for 55 minutes, the synaptosomes (P2 fraction) are obtained, which are resuspended in 0.32 M […] (0.5 mL/100 mg of original weight).
The particular uptake is measured in a 96-well microtitre plate. The volume is 250 μl and the incubation proceeds at room temperature (approx. 20-25° C.) under an O2 atmosphere.
The incubation time is 7.5 minutes for [^3H]-NA and 5 minutes for [^3H]-5-HT. The 96 samples are then filtered through a Unifilter GF/B® microtitre plate (Packard) and washed with 200 mL of incubated buffer using a “Brabdel MPXRI-96T Cell-Harvester”. The Unifilter GF/B plate is dried for 1 hour at 55° C. The plate is then sealed with a Back Seal® (Packard) and 35 μl of scintillation fluid are added per well (Ultima Gold®, Packard). After sealing with a top Seal® (Packard) and establishing an equilibrium (around 5 hours), radioactivity is determined in a “Trilux 1450 Microbeta” (Wallac).
The quantity of protein used in the above determination corresponds to the values known from the literature, as for example described in “Protein measurement with the folin phenol reagent”, Lowry et al., J. Biol. Chem., 193, 265-275, 1951.
A detailed description of the method may additionally be found in the literature, for example in M. Ch. Frink, H.-H. Hennies, W. Engelberger, M. Haurand and B. Wilffert (1996) Arzneim.-Forsch./Drug Res. 46 (III), 11, 1029-1036.

O=C1OC2(CCN(C(=S)Nc3cc(Cl)ccc3Cl)CC2)CN1Cc1cccc(Br)c1 [Example 2, 3-(3-bromobenzyl)-2-oxo-1-oxa-3,8-diazaspiro[4.5]decane-8-carbothioic acid (2,5-dichlorophenyl)amide]
inhibition at 10 µM (5-HT transporter): 60%
inhibition at 10 µM (NA transporter): 64%

COCCNC(=S)N1CCC2(CC1)CN(Cc1cccc(Br)c1)C(=O)O2 [Example 5, 3-(3-bromobenzyl)-2-oxo-1-oxa-3,8-diazaspiro[4.5]decane-8-carbothioic acid (2-methoxyethyl)amide]
inhibition at 10 µM (NA transporter): 70%

COc1ccccc1NC(=S)N1CCC2(CC1)CN(Cc1cccc(Br)c1)C(=O)O2 [Example 6, 3-(3-bromobenzyl)-2-oxo-1-oxa-3,8-diazaspiro[4.5]decane-8-carbothioic acid (2-methoxyphenyl)amide]
inhibition at 10 µM (5-HT transporter): 63%
inhibition at 10 µM (NA transporter): 56%

CC(=O)c1cccc(NC(=S)N2CCC3(CC2)CN(Cc2cc(C)cc(C)c2)C(=O)O3)c1 [Example 7, 3-(3,5-dimethylbenzyl)-2-oxo-1-oxa-3,8-diazaspiro[4.5]decane-8-carbothioic acid (3-acetylphenyl)amide]
inhibition at 10 µM (5-HT transporter): 55%
inhibition at 10 µM (NA transporter): 50%

Cc1ccccc1NC(=S)N1CCC2(CC1)CN(Cc1ccccc1)C(=O)O2 [Example 8, 3-benzyl-2-oxo-1-oxa-3,8-diazaspiro[4.5]decane-8-carbothioic acid o-tolylamide]
inhibition at 10 µM (5-HT transporter): 62%
inhibition at 10 µM (NA transporter): 50%

CCOC(=O)CC(C)NC(=S)N1CCC2(CC1)CN(Cc1cccc(Br)c1)C(=O)O2 (stereo not drawn) [Example 9, 3-{[3-(3-bromobenzyl)-2-oxo-1-oxa-3,8-diazaspiro[4.5]decane-8-carbothioyl]amino}butanoic acid ethyl ester]
inhibition at 10 µM (NA transporter): 81%

C=CCNC(=S)N1CCC2(CC1)CN(Cc1ccc3ccccc3c1)C(=O)O2 [Example 10, 3-naphthalen-2-ylmethyl-2-oxo-1-oxa-3,8-diazaspiro[4.5]decane-8-carbothioic acid allylamide]
inhibition at 10 µM (5-HT transporter): 50%
inhibition at 10 µM (NA transporter): 78%

CCOc1ccc(NC(=S)N2CCC3(CC2)CN(Cc2ccc(F)c(F)c2)C(=O)O3)cc1 [Example 13, 3-(3,4-difluorobenzyl)-2-oxo-1-oxa-3,8-diazaspiro[4.5]decane-8-carbothioic acid (4-ethoxyphenyl)amide]
inhibition at 10 µM (5-HT transporter): 44%
inhibition at 10 µM (NA transporter): 53%

N#Cc1cccc(CN2CC3(CCN(C(=S)Nc4cc(Cl)cc(Cl)c4)CC3)OC2=O)c1 [Example 14, 3-(3-cyanobenzyl)-2-oxo-1-oxa-3,8-diazaspiro[4.5]decane-8-carbothioic acid (3,5-dichlorophenyl)amide]
inhibition at 10 µM (5-HT transporter): 57%
inhibition at 10 µM (NA transporter): 49%

N#Cc1cccc(CN2CC3(CCN(C(=S)Nc4cccc(C(F)(F)F)c4)CC3)OC2=O)c1 [Example 15, 3-(3-cyanobenzyl)-2-oxo-1-oxa-3,8-diazaspiro[4.5]decane-8-carbothioic acid (3-trifluoromethylphenyl)amide]
inhibition at 10 µM (5-HT transporter): 57%
inhibition at 10 µM (NA transporter): 55%

COc1ccc([N+](=O)[O-])cc1CN1CC2(CCN(C(=S)NCC3CCCO3)CC2)OC1=O (stereo not drawn) [Example 17, 3-(2-methoxy-5-nitrobenzyl)-2-oxo-1-oxa-3,8-diazaspiro[4.5]decane-8-carbothioic acid (tetrahydrofuran-2-ylmethyl)amide]
inhibition at 10 µM (5-HT transporter): 50%
inhibition at 10 µM (NA transporter): 45%

O=C1OC2(CCN(C(=S)Nc3ccccc3)CC2)CN1Cc1ccccc1-c1ccccc1 [Example 18, 3-biphenyl-2-ylmethyl-2-oxo-1-oxa-3,8-diazaspiro[4.5]decan-8-carbothioic acid phenylamide]
inhibition at 10 µM (NA transporter): 55%

N#Cc1cccc(CN2CC3(CCN(C(=S)NCC4CCCCC4)CC3)OC2=O)c1 [Example 19, 3-(3-cyanobenzyl)-2-oxo-1-oxa-3,8-diazaspiro[4.5]decane-8-carbothioic acid cyclohexylmethylamide]
inhibition at 10 µM (5-HT transporter): 69%
inhibition at 10 µM (NA transporter): 48%

CC(=O)c1cccc(NC(=S)N2CCC3(CC2)CN(Cc2ccccc2F)C(=O)O3)c1 [Example 20, 3-(2-fluorobenzyl)-2-oxo-1-oxa-3,8-diazaspiro[4.5]decane-8-carbothioic acid (3-acetylphenyl)amide]
inhibition at 10 µM (NA transporter): 48%

CCOc1ccc(NC(=O)N2CCC3(CC2)CN(Cc2ccccc2F)C(=O)O3)cc1 [Example 24, 3-(2-fluorobenzyl)-2-oxo-1-oxa-3,8-diazaspiro[4.5]decane-8-carboxylic acid (4-ethoxyphenyl)amide]
inhibition at 10 µM (NA transporter): 58%

Cc1ccc(CN2CC3(CCN(C(=O)Nc4ccc(C)c([N+](=O)[O-])c4)CC3)OC2=O)cc1 [Example 27, 3-(4-methylbenzyl)-2-oxo-1-oxa-3,8-diazaspiro[4.5]decane-8-carboxylic acid (4-methyl-3-nitrophenyl)amide]
inhibition at 10 µM (5-HT transporter): 62%
inhibition at 10 µM (NA transporter): 68%

O=C(NCc1ccc(F)cc1)N1CCC2(CC1)CN(Cc1ccc(F)c(F)c1)C(=O)O2 [Example 28, 3-(3,4-difluorobenzyl)-2-oxo-1-oxa-3,8-diazaspiro[4.5]decane-8-carboxylic acid 4-fluorobenzylamide]
inhibition at 10 µM (5-HT transporter): 45%
inhibition at 10 µM (NA transporter): 53%

O=C(Nc1cc(F)ccc1F)N1CCC2(CC1)CN(Cc1cccc(Br)c1)C(=O)O2 [Example 29, 3-(3-bromobenzyl)-2-oxo-1-oxa-3,8-diazaspiro[4.5]decane-8-carboxylic acid (2,5-difluorophenyl)amide]
inhibition at 10 µM (5-HT transporter): 84%
inhibition at 10 µM (NA transporter): 82%

N#Cc1cccc(NC(=O)N2CCC3(CC2)CN(Cc2ccccc2)C(=O)O3)c1 [Example 33, 3-benzyl-2-oxo-1-oxa-3,8-diazaspiro[4.5]decane-8-carboxylic acid (3-cyanophenyl)amide]
inhibition at 10 µM (5-HT transporter): 59%
inhibition at 10 µM (NA transporter): 93%

Cc1ccc(NC(=O)N2CCC3(CC2)CN(Cc2ccc(F)c(F)c2)C(=O)O3)cc1[N+](=O)[O-] [Example 34, 3-(3,4-difluorobenzyl)-2-oxo-1-oxa-3,8-diazaspiro[4.5]decane-8-carboxylic acid (4-methyl-3-nitrophenyl)amide]
inhibition at 10 µM (NA transporter): 41%

COc1cccc(NC(=O)N2CCC3(CC2)CN(Cc2ccc(F)c(F)c2)C(=O)O3)c1 [Example 35, 3-(3,4-difluorobenzyl)-2-oxo-1-oxa-3,8-diazaspiro[4.5]decane-8-carboxylic acid (3-methoxyphenyl)amide]
inhibition at 10 µM (5-HT transporter): 56%
inhibition at 10 µM (NA transporter): 63%

O=C(Nc1ccc(Cl)c(C(F)(F)F)c1)N1CCC2(CC1)CN(Cc1ccccc1)C(=O)O2 [Example 37, 3-benzyl-2-oxo-1-oxa-3,8-diazaspiro[4.5]decane-8-carboxylic acid (4-chloro-3-trifluoromethylphenyl)amide]
inhibition at 10 µM (NA transporter): 47%

O=C(NCCc1ccccc1)N1CCC2(CC1)CN(Cc1ccccc1C(F)(F)F)C(=O)O2 [Example 49, 2-oxo-3-(2-trifluoromethylbenzyl)-1-oxa-3,8-diazaspiro[4.5]decane-8-carboxylic acid phenethylamide]
inhibition at 10 µM (NA transporter): 48%

O=C(Nc1cccc(F)c1)N1CCC2(CC1)CN(Cc1ccccc1)C(=O)O2 [Example 60, 3-benzyl-2-oxo-1-oxa-3,8-diazaspiro[4.5]decane-8-carboxylic acid (3-fluorophenyl)amide]
inhibition at 10 µM (NA transporter): 58%

Cc1ccc(CN2CC3(CCN(CC(=O)Nc4ccc(S(=O)(=O)Nc5cc(Cl)cc(Cl)c5)cc4)CC3)OC2=O)cc1 [Example 75, N-[4-(3,5-dichlorophenylsulfamoyl)phenyl]-2-[3-(4-methylbenzyl)-2-oxo-1-oxa-3,8-diazaspiro[4.5]dec-8-yl]acetamide]
inhibition at 10 µM (NA transporter): 67%

COc1ccc([N+](=O)[O-])cc1CN1CC2(CCN(C(=O)Cc3ccc(OC)c(OC)c3)CC2)OC1=O [Example 150, 8-[2-(3,4-dimethoxyphenyl)acetyl]-3-(2-methoxy-5-nitrobenzyl)-1-oxa-3,8-diazaspiro[4.5]decan-2-one]
inhibition at 10 µM (5-HT transporter): 84%

N#Cc1ccccc1CN1CC2(CCN(C(=O)c3ccc([N+](=O)[O-])cc3Cl)CC2)OC1=O [Example 151, 2-[8-(2-chloro-4-nitrobenzoyl)-2-oxo-1-oxa-3,8-diazaspiro[4.5]dec-3-ylmethyl]benzonitrile]
inhibition at 10 µM (5-HT transporter): 71%
